Reference: patent US20040224876A1, “Combination therapy for the treatment of immunoinflammatory disorders” (priority 2003, published 2004)
“And” between values parts separate entries of the source, which are not always exact repeats. Equal values may be shown once. Read-outs that look alike come from different tables or passages of the source.

Legend:
[1] = test system: IL-2 secretion, human white blood cells; assay: IL-2 secretion by PMA/ionomycin-stimulated human white blood cells (ELISA)
Protocol: (§1) Various concentrations of each test compound were added at the time of stimulation. […] After the plate was washed with 0.1% Tween 20/PBS, an HRP-luminescent substrate was added to each well and light intensity measured using a LJL Analyst plate luminometer.
(§2) The percent inhibition (% I) for each well was calculated using the following formula:
(§3) The average untreated well value (avg. untreated wells) is the arithmetic mean of 40 wells from the same assay plate treated with vehicle alone.

[2] = test system: TNFα secretion, human white blood cells; assay: TNFα secretion, lipopolysaccharide stimulation, human white blood cells (ELISA)
Protocol: as §1, §2, §3

[3] = test system: TNFα secretion, human white blood cells; conditions: cyclosporine 0 μM
Protocol: Drugs were added to the indicated concentration. […] The plate was then washed again with 0.1% Tween 20/PBS. An HRP-luminescent substrate was added to each well, and the light intensity of each well was measured using a plate luminometer.
as §2, §3

[4] = cited from earlier work
[5] = read-out: % Inhibition of TNFα secretion, cyclosporine A 0 μM, chlorpromazine […]
[6] = read-out: % Inhibition of IL-2 secretion, cyclosporine A 0.00 μM, ethopropazine […]
[7] = read-out: % Inhibition of TNFα secretion, cyclosporine A 0.00 μM, ethopropazine […]
[8] = read-out: % Inhibition of IL-2 secretion

## CN(C)CCCN1c2ccccc2Sc2ccc(Cl)cc21 [Chlorpromazine]
[1]; read-out: % Inhibition of IL-2 secretion, cyclosporine A 0 μM, chlorpromazine 0.6 μM
  inhibition at 0.6 µM: -13.3%
[1]; read-out: % Inhibition of IL-2 secretion, cyclosporine A 0 μM, chlorpromazine 5.0 μM
  inhibition at 5 µM: -13.7%
[1]; read-out: % Inhibition of IL-2 secretion, cyclosporine A 0 μM, chlorpromazine 20.0 μM
  inhibition at 20 µM: 24.7%
[1]; read-out: % Inhibition of IL-2 secretion, cyclosporine A 0 μM, chlorpromazine 40.0 μM
  inhibition at 40 µM: 80.7%
[1]; read-out: % Inhibition of IL-2 secretion, cyclosporine A 0 μM, chlorpromazine 80.0 μM
  inhibition at 80 µM: 94.7%
[2]; [5]
  inhibition at 17 µM: 46.2%
  inhibition at 35 µM: 45.5%

## CCN(CC)C(C)CN1c2ccccc2Sc2ccccc21 (centres unmarked) [Ethopropazine]
[1]; [6]
  inhibition at 17 µM: 21%
  inhibition at 35 µM: 52.3%
[2]; [7]
  inhibition at 17 µM: 24.3%
  inhibition at 35 µM: 69.6%

## CN(C)C(=O)C(CCN1CCC(O)(c2ccc(Cl)cc2)CC1)(c1ccccc1)c1ccccc1 [Loperamide]
[1]; [8]
  inhibition at 17 µM: 4.2%
  inhibition at 35 µM: 42.4%
  inhibition at […]: -14.9% and -15.5% and -10.5% and -15.4% (2×) and -13.5%
[2]; read-out: % Inhibition of TNFα secretion
  inhibition at 35 µM: 87.3%

## CCOC(=O)N1CCC(=C2c3ccc(Cl)cc3CCc3cccnc32)CC1 [Loratadine]
[3]; loratadine 0.2 μM
  Reduction of TNFα secretion: 0
[3]; loratadine 13 μM
  Reduction of TNFα secretion: 30.1
[3]; loratadine 26 μM
  Reduction of TNFα secretion: 40.7

## CO[C@H]1C[C@@H]2CC[C@@H](C)[C@@](O)(O2)C(=O)C(=O)N2CCCC[C@H]2C(=O)O[C@H]([C@H](C)C[C@@H]2CC[C@@H](O)[C@H](OC)C2)CC(=O)[C@H](C)/C=C(\C)[C@@H](O)[C@@H](OC)C(=O)[C@H](C)C[C@H](C)/C=C/C=C/C=C/1C [Rapamycin]
[4]
  absorption after oral administration: absorbed rapidly and completely

## C=CC[C@@H]1/C=C(\C)C[C@H](C)C[C@H](OC)[C@H]2O[C@@](O)(C(=O)C(=O)N3CCCC[C@H]3C(=O)O[C@H](/C(C)=C/[C@@H]3CC[C@@H](O)[C@H](OC)C3)[C@H](C)[C@@H](O)CC1=O)[C@H](C)C[C@@H]2OC [Tacrolimus]
[1]; PBMC, read-out: % Inhibition IL-2 PBMC PI, tacrolimus 0.0004 μM, fluvoxamine μM: 0,0.16,0.31,0.62,1.2,2.5,5,10,20
  inhibition at 0.0004 µM: 0.73%
[1]; PBMC, read-out: % Inhibition IL-2 PBMC PI, tacrolimus 0.0008 μM, fluvoxamine μM: 0,0.16,0.31,0.62,1.2,2.5,5,10,20
  inhibition at 0.0008 µM: -4.4%
[1]; PBMC, read-out: % Inhibition IL-2 PBMC PI, tacrolimus 0.05 μM, fluvoxamine μM: 0,0.16,0.31,0.62,1.2,2.5,5,10,20
  inhibition at 0.05 µM: 87%
[1]; read-out: maximal inhibition of IL-2 production, tacrolimus 0.05 μM alone
  inhibition at 0.05 µM: 87%
